Reference: the NIST ThermoML archive (doi:10.1016/j.tca.2014.11.027)
Numbers after ± are expanded uncertainties.

Conditions: Liquid; Gas Chromatography

Compound	Normal boiling temperature [°C]
CCCCP(=O)(OCCC(C)C)OCCC(C)C [diisopentyl butylphosphonate]	306.90 ± 2
CCCCCCP(=O)(OCCCC)OCCCC [dibutyl hexylphosphonate]	319.92 ± 2
CCCCOP(=O)(CCCC)OCCCC [dibutyl butanephosphonate]	292.92 ± 2
CCCCCCCCP(=O)(OCCCC)OCCCC [dibutyl octylphosphonate]	332.96 ± 2

The remaining lines, values ahead:

Normal boiling temperature [°C]	Compound
306.70 ± 2	CCCCCP(=O)(OCCCC)OCCCC [dibutyl pentylphosphonate]
321.52 ± 2	CCCCCP(=O)(OCCC(C)C)OCCC(C)C [diisopentyl pentylphosphonate]
332.64 ± 2	CCCCCOP(=O)(CCCCC)OCCCCC [dipentyl pentylphosphonate]
319.84 ± 2	CCCCCOP(=O)(CCCC)OCCCCC [dipentyl butylphosphonate]
344.43 ± 2	CCCCCCP(=O)(OCCCCC)OCCCCC [dipentyl hexylphosphonate]
332.33 ± 2	CCCCCCP(=O)(OCCC(C)C)OCCC(C)C [diisopentyl hexylphosphonate]
